In patent US12728116B2, “Methods of treating multiple sclerosis” (Vanda Pharmaceuticals Inc., priority 2021, dated 2026):

Tested on: adult subjects with relapsing MS
Experiment: FSIQ-RMS weekly symptoms score, change from baseline to Week 108 (fatigue)
Assay type: in vivo, human
Conditions: for FSIQ-RMS change: Improved (<−6.3), patients / FSIQ-RMS change: Stable (−6.3 < x < +6.3), patients / FSIQ-RMS change: Stable or Improved, patients / FSIQ-RMS change: Worsened (≥6.3), patients / FSIQ-RMS-S total score change: Improved (<−6.3), patients / FSIQ-RMS-S total score change: Stable (−6.3 < x < +6.3), patients / FSIQ-RMS-S total score change: Stable or Improved, patients / FSIQ-RMS-S total score change: Worsened (≥6.3), patients: Week 108; for Mean change from baseline to Week 108 in FSIQ-RMS weekly symptoms score (MMRM): ponesimod 20 mg, teriflunomide 14 mg, full analysis set, increase = worsening
Protocol: In some embodiments, the patient-reported outcome questionnaire is the symptom domain of the FSIQ-RMS. The FSIQ-RMS symptom domain (FSIQ-RMS-S) consists of seven items assessing fatigue-related symptoms with a recall period of 24 hours measured on an 11-point numeric rating scale; the standardized symptom domain score ranges from 0 to 100 with a higher score indicating greater fatigue. This domain (i.e., section 1 of the questionnaire) is completed on 7 consecutive days.
As used herein, the term “patient level” refers to individual or within patient level of change. As used herein, “clinically meaningful” refers to the practical importance of a treatment effect and whether it has a real genuine, palpable, noticeable effect on symptoms and/or daily life. When interpreting data from a Patient Reported Outcome (PRO), for example, it is helpful to define a level of change on the PRO score over a predetermined time period that should be interpreted as a treatment benefit. Various terms are used for this level of change, including meaningful change threshold (MCT). This threshold can be used to conduct a responder analysis where an individual patient is a responder if the level of change on the PRO score for that patient exceeds the MCT. The proportion of responders between treatment groups can be compared to evaluate treatment effect. For example, in certain embodiments disclosed herein, there is an analysis of the percentage of responders in the ponesimod and teriflunomide treatment groups using an MCT of −6.3 on the FSIQ-RMS weekly symptom score. The percentage of subjects in the stable or improved category is also calculated. […] Accordingly, evaluation of within patient changes using MCT and associated responder analyses are used to provide additional interpretation to a p-value derived from a statistical test
For the MS symptoms domain, the FSIQ-RMS asks about a patient's fatigue-related symptoms of relapsing MS over the past 24 hours while doing routine daily activities (e.g., housework, yard work, shopping, working, etc.) for Items 1-6 or while at rest (e.g., reading a book, watching TV, etc.) for Item 7. Patients are asked to select a response on a scale of 0 to 10 that best describes their experience and are asked to not skip any questions, with no answers being right or wrong. • Item 1—In the past 24 hours, while doing routine daily activities, how physically tired did you feel? See FIG. 31. • Item 2—In the past 24 hours, while doing routine daily activities, how mentally tired did you feel? See FIG. 32. • Item 3—In the past 24 hours, while doing routine daily activities, how physical weak did you feel? See FIG. 33. • Item 4—In the past 24 hours, how would you rate your energy while doing routine daily activities? See FIG. 34. • Item 5—In the past 24 hours, while doing routine daily activities, how worn out did you feel? See FIG. 35. • Item 6—In the past 24 hours, while doing routine daily activities, how sleepy did you feel? See FIG. 36. • Item 7—In the past 24 hours, how worn out did you feel while at rest? MS-Related Impacts—13 Items
Secondary efficacy variables and testing strategy: Four secondary efficacy endpoints were analyzed as per the statistical testing strategy outlined in FIG. 1. • Change from baseline to Week 108 in fatigue-related symptoms as measured by the symptoms domain of the FSIQ-RMS patient-reported outcome [Fatigue] • Cumulative number of combined unique active lesions from baseline to Week 108 on brain MRI [CUALs] • Time to first 12-week confirmed disability accumulation (CDA) from baseline to EOS on Expanded Disability Status Scale (EDSS) [12-week CDA] • Time to first 24-week CDA from baseline to EOS on EDSS [24-week CDA] […]

[1] = Baseline EDSS <3.5 (title: ≤3.5)
[2] = baseline fatigue below the median
[3] = no prior DMT treatment within about two years
[4] = no prior DMT treatment within about two years, listed as ponesimod

SMILES	FSIQ-RMS change: Improved (<−6.3), patients [1] [%]	FSIQ-RMS change: Stable (−6.3 < x < +6.3), patients [1] [%]	FSIQ-RMS change: Stable or Improved, patients [1] [%]	FSIQ-RMS change: Worsened (≥6.3), patients [1] [%]	FSIQ-RMS-S total score change: Improved (<−6.3), patients (Full Analysis Set) [%]	FSIQ-RMS-S total score change: Stable (−6.3 < x < +6.3), patients (Full Analysis Set) [%]	FSIQ-RMS-S total score change: Stable or Improved, patients (Full Analysis Set) [%]	FSIQ-RMS-S total score change: Worsened (≥6.3), patients (Full Analysis Set) [%]	FSIQ-RMS change: Improved (<−6.3), patients [2] [%]	FSIQ-RMS change: Stable (−6.3 < x < +6.3), patients [2] [%]	FSIQ-RMS change: Stable or Improved, patients [2] [%]	FSIQ-RMS change: Worsened (≥6.3), patients [2] [%]	FSIQ-RMS change: Improved (<−6.3), patients (no Gd+ T1 lesions at baseline) [%]	FSIQ-RMS change: Stable (−6.3 < x < +6.3), patients (no Gd+ T1 lesions at baseline) [%]	FSIQ-RMS change: Stable or Improved, patients (no Gd+ T1 lesions at baseline) [%]	FSIQ-RMS change: Worsened (≥6.3), patients (no Gd+ T1 lesions at baseline) [%]	FSIQ-RMS change: Improved (<−6.3), patients [3] [%]	FSIQ-RMS change: Stable (−6.3 < x < +6.3), patients [3] [%]	FSIQ-RMS change: Stable or Improved, patients [3] [%]	FSIQ-RMS change: Worsened (≥6.3), patients [3] [%]	also measured
CCC/N=C1\S/C(=C\c2ccc(OC[C@H](O)CO)c(Cl)c2)C(=O)N1c1ccccc1C [Ponesimod, (R)-5-[3-chloro-4-(2,3-dihydroxy-propoxy)-benz[Z]ylidene]-2-([Z]-propylimino)-3-o-tolyl-thiazolidin-4-one]	30.6	40.8	71.4	28.6	30.5	38.4	68.9	31.1	19.1	45.2	64.4	35.6	30.0	37.4	67.5	32.5	31.4	44.0	75.4	24.6	MS-fatigue (FSIQ-RMS) mean difference, change from baseline to week 108, ponesimod vs teriflunomide (EDSS≤3 subgroup): −4.31; FSIQ-RMS change: Stable or Improved, patients (baseline fatigue below the median, listed as ponesimod): ~65%; FSIQ-RMS change: Stable or Improved, patients (no Gd+ T1 lesions at baseline, listed as ponesimod): about 68%; FSIQ-RMS change: Improved (<−6.3), patients [4]: 31.4%; FSIQ-RMS change: Stable or Improved, patients [4]: about 75%; Mean difference in FSIQ-RMS change from baseline to Week 108, ponesimod vs teriflunomide (ponesimod 20 mg vs teriflunomide 14 mg, Full Analysis Set): −3.57; Mean change from baseline to Week 108 in FSIQ-RMS weekly symptoms score (MMRM): −0.01
C/C(O)=C(\C#N)C(=O)Nc1ccc(C(F)(F)F)cc1 [Teriflunomide, reference compound]	27.9	34.2	62.1	37.9	29.9	32.6	62.5	37.5	20.9	33.7	54.6	45.4	25.8	31.2	57.0	43.0	26.2	36.9	63.1	36.9	FSIQ-RMS change: Stable or Improved, patients (baseline fatigue below the median, listed as teriflunomide): about 55%; FSIQ-RMS change: Stable or Improved, patients (no Gd+ T1 lesions at baseline, listed as teriflunomide): about 57%; Mean change from baseline to Week 108 in FSIQ-RMS weekly symptoms score (MMRM): 3.56
